{"source": "patent US20250195653A1", "about": "“MULTIFUNCTIONAL NATURAL KILLER (NK) CELL ENGAGER COMBINATION THERAPY FOR TREATING HEMATOLOGICAL NEOPLASTIC DISORDERS” (SANOFI, priority 2023, published 2025)", "key": {"[1]": {"system": "CD123-positive MOLM-13 AML cell line", "assay": "5-azacytidine and venetoclax flow cytometry cytotoxic assay, 48 h", "assay_type": "cell-based", "method": "The MOLM-13 cell line (DSMZ ACC 554) is an acute myeloid leukemia cell line. These cells are mostly round cells growing in suspension. For maintenance, cells were resuspended in fresh RPMI1640 medium supplemented with 10% Fetal Bovin Serum (FBS; Biowest, ref #S140H-100) and 2 mM L-Glutamine (Gibco, ref #25030-024) referred as complete culture medium at 0.3×10^6 cells/mL for 3 or 4 days.\nOn the day of the assay, the product was thawed and vortexed to eliminate potential aggregates before cascade dilution. A first dilution of 1/100 was performed in complete culture medium. Then, a dilution range from 20 μM (twice concentrated) to 20 pM (1/10 serial dilution) was performed in complete culture medium to assess the concentration-dependent effect of the single agent.\nSimilarly, stock solution of VEN was stored in complete culture medium at 4° C. On the day of the assay, the product was vortexed to eliminate potential aggregates before cascade dilution. A dilution range from 20 μM (twice concentrated) to 20 pM (1/10 serial dilution) was performed in complete culture medium to assess the concentration-dependent effect of the single agent.\n(§1) Of these serial dilutions 100 μL of VEN (single agent) was added to each well that contains 100 μL of cell suspension to obtain a final concentration of 10, 1, 0.1, 0.01, 0.001, 0.0001, 0.00001 μM in a final volume of 200 μL/well.\nCD123-positive MOLM-13 target cells were counted the day of the assay and the amount of cell needed for the experiment was evaluated. Target cells were seeded at 0.05×10^6 cells/50 μL of complete culture medium per well.\nIn the meantime, compound seral dilutions or the four defined concentrations were prepared and added to a U-bottom 96-well plate (100 μL/well). As controls, target cells alone without drugs, were cultured at the same concentration in complete culture medium (200 μL/well). Each condition was performed in monoplicate.\nCulture plates were incubated at 37° C. in the presence of 5% CO2 for 48 h. The plates were centrifuged at 300 g for 5 minutes at RT and resuspended in 100 μL of PBS to the following reading by MACSQuant Analyzer 16 Flow. The marker of viability PI was added to every well reading at dilution 1/10."}, "[2]": {"system": "CD123 on MOLM-13 cells", "assay": "CD123 expression on MOLM-13 cells by flow cytometry", "assay_type": "cell-based", "details": "for CD123 expression level (MedFI) on MOLM-13 cells: 0.01 nM to 10 μM; for CD123 expression (median fluorescence intensity) on MOLM-13 cells: 1 nM and 1 μM, 6 h, 24 h or 48 h, MOLM-13 alone or with NK cells from two donors; for CD123 target expression on MOLM-13 AML tumor cells (conclusion): at the tested concentrations, up to 6 days of treatment", "method": "(§2) Following the proper timing of incubation (from 6 h to 72 h), 0.05×10^6 cells/well MOLM-13 and NK cells in 96-well round bottom plates (Corning® Costar® Ultra-Low Attachment Multiple 96-Well Plate; Thermo Scientific, Denmark, ref #7007) were centrifuged at 300 g for 5 minutes at RT. Supernatant was aspirated and Tampon Running Buffer (Miltenyi, ref #130-091-2221) or the antibodies were added to the cell pellets (50 μL/well). In addition, 1 μL of each antibody was used to stain the compensation beads. The cells and the beads were incubated for 20 minutes at 4° C. Two consecutive washing steps were performed by adding 150 and then 200 μL of Tampon Running Buffer in the wells followed by centrifugation at 300 g for 5 minutes at 4° C.\n(§3) Finally, 100 μL/well of PBS were added before reading the plate by MACSQuant Analyzer 16 Flow Cytometer. The propidium iodide (PI) marker of viability was added to every well reading at 1/10 dilution.\n(§4) Finally, NK cell at effector:target (E:T) ratio of 1:1 (thus 0.05×10^6 cells/well) were incubated with MOLM-13 cell line at 37° C. in the presence of 5% CO2. After 6 h, 24 h, or 48 h, plates were centrifuged at 300 g for 5 minutes at RT. The Tampon Running Buffer or the selected antibodies were added to the cell pellets (50 μL/well) to assess cell viability and to perform the flow cytometry-based staining."}, "[3]": {"system": "NK cells", "assay": "NK cell viability after treatment with AZA or VEN", "assay_type": "cell-based, human", "details": "0.01 nM to 10 μM, 48 h, 3 independent NK donors", "method": "(§5) Human NK cells were purified from PBMCs using MACSxpress® Whole Blood NK Cell Isolation Kit (Miltenyi, ref #130-127-695) according to supplier recommendations. NK cells were then cultured in complete medium at 5×10^6 cells/mL at +37° C. at 5% CO2 (so called “resting” NK cells) overnight before being used in the activation assay.\nas §1\nas §2, with “Two consecutive washing steps were performed by adding 150 and then 200 μL of Tampon Running Buffer in the wells followed by centrifugation at 300 g for 5 minutes at 4° C.” left out\nas §3"}, "[4]": {"system": "CD16a on NK cells", "assay": "CD16a expression on NK cells by flow cytometry", "assay_type": "cell-based, human", "details": "1 μM AZA or 1 nM VEN", "method": "as §5, §2, §3"}, "[5]": {"system": "NKp46 on NK cells", "assay": "NKp46 expression on NK cells by flow cytometry", "assay_type": "cell-based, human", "details": "1 μM AZA or 1 nM VEN", "method": "as §5, §2, §3"}, "[6]": {"system": "NK cells", "assay": "NK cell phenotype in the presence of AZA or VEN", "assay_type": "cell-based, human", "details": "AZA or VEN at defined concentrations (1 μM AZA, 1 nM VEN, 48 h)", "method": "as §5, §2, §3"}, "[7]": {"system": "MOLM-13 RFP AML cells", "assay": "Incucyte in vitro killing assay with NK effector cells, E:T 1:1", "assay_type": "cell-based", "details": "CD123 NKCE 5 ng/mL, AZA 600 nM or VEN 2 nM", "method": "MOLM-13 RFP cells were generated by infecting MOLM-13 (DSMZ, ACC: 554) with the Incucyte® Nuclight Red Lentivirus (Sartorius #4476) to express a nuclear-restricted mKate2 (red fluorescent protein, RFP). MOLM-13 RFP cells were harvested in the same culture medium used for wild-type cells with the addition of 1 μg/mL of puromycin (Gibco, ref #A11138-03) to maintain the selection pressure.\nHuman NK cells were purified from PBMCs using MACSxpress® Whole Blood NK Cell Isolation Kit (Miltenyi, ref #130-127-695) according to supplier recommendations. […]\nCytotoxicity was evaluated using the Incucyte live-cells analysis system which allows to quantify the number of live fluorescent target cells over time.\nFirst, 50 μL of CD123 NKCE and its isotype control were distributed in the appropriate wells of an F-bottom (flat-bottom) 96-well plate coated with poly-D-lysine (Greiner BioOne ref #655946). CD123 NKCE was tested at 5 ng/mL, while its isotype was evaluated at the highest concentration of 100 ng/ml. […]\nThe growth/proliferation of MOLM-13 RFP tumor cells was monitored by cell imaging up to 64 h using the Incucyte® S3 with standard scans every 4 h. […] Tumor cells growth/proliferation was calculated by counting the number of red cells at each time point, which was then normalized to the number of cells at time zero and expressed as a percentage."}, "[8]": {"system": "MOLM-13 cells", "assay": "MOLM-13 cell viability over 72 h and 6 days with AZA or VEN (flow cytometry)", "assay_type": "cell-based", "method": "as §2, §3"}, "[9]": {"system": "CD123-positive MOLM-13 cells", "assay": "5-azacytidine and venetoclax cytotoxic assays in the absence or presence of NK cells (6 h, 24 h, 48 h)", "assay_type": "cell-based", "details": "VEN 1 μM", "method": "as §4"}, "[10]": {"details": "at the dose of 400 mg; cited from earlier work"}, "[11]": {"details": "cited from earlier work"}}, "note": "“Also recorded” adds a separate entry of the source.", "data": [{"compound": "Nc1ncn([C@@H]2O[C@H](CO)[C@@H](O)[C@H]2O)c(=O)n1", "note": "[AZA, 4-amino-1-beta-D-ribofuranosyl-s-triazin-2 (1H)-one]", "values": [{"measurement": "MOLM-13 AML cell viability", "setting": "[1]; AZA at high concentration (10 μM), 48 h", "result": "strongly decreased; also recorded: cytotoxic activity"}, {"measurement": "MOLM-13 AML cell viability", "setting": "[1]; AZA at lower concentrations, 48 h, compared to non-treated control", "result": "No effect"}, {"measurement": "CD123 expression level (MedFI) on MOLM-13 cells", "setting": "[2]; 48 h", "result": "minimal impact"}, {"measurement": "CD123 expression (median fluorescence intensity) on MOLM-13 cells", "setting": "[2]", "result": "did not impact"}, {"measurement": "CD123 median of fluorescence intensity (MedFI) on MOLM-13 cells", "setting": "[2]; AZA at 1 and 10 μM, 48 h", "result": "slight decrease"}, {"measurement": "CD123 target expression on MOLM-13 AML tumor cells (conclusion)", "setting": "[2]", "result": "minimal impact"}, {"measurement": "NK cell viability", "setting": "[3]", "result": "did not negatively impact; also recorded: no cytotoxic effect"}, {"measurement": "CD16a expression level on NK cells", "setting": "[4]", "result": "no impact"}, {"measurement": "NKp46 expression level on NK cells", "setting": "[5]", "result": "no impact"}, {"measurement": "impact on NK cell phenotype", "setting": "[6]", "result": "minimal impact"}, {"measurement": "target cell lysis, single agent", "setting": "[7]", "result": "increased target cell lysis; also recorded: some target lysis"}, {"measurement": "MOLM-13 cell viability", "setting": "[8]; AZA 600 nM and 3 μM", "result": "did not affect"}]}, {"compound": "CC1(C)CCC(CN2CCN(c3ccc(C(=O)NS(=O)(=O)c4ccc(NCC5CCOCC5)c([N+](=O)[O-])c4)c(Oc4cnc5[nH]ccc5c4)c3)CC2)=C(c2ccc(Cl)cc2)C1", "note": "[VEN]", "values": [{"measurement": "MOLM-13 cell viability, concentration-dependent response", "setting": "[1]; VEN 0.01 nM to 10 μM, 48 h", "result": "impact on MOLM-13 cell viability from 10 nM to 10 μM"}, {"measurement": "killing activity as a single agent", "setting": "[1]; VEN at its plasma concentration, 2 μM", "result": "very strong killing activity"}, {"measurement": "CD123 expression level (MedFI) on MOLM-13 cells", "setting": "[2]; 48 h", "result": "mild reduction"}, {"measurement": "CD123 expression (median fluorescence intensity) on MOLM-13 cells", "setting": "[2]", "result": "did not impact"}, {"measurement": "CD123 target expression on MOLM-13 AML tumor cells (conclusion)", "setting": "[2]", "result": "minimal impact"}, {"measurement": "killing potential on MOLM-13 cells", "setting": "[9]", "result": "enhanced killing potential"}, {"measurement": "impact on MOLM-13 cell viability", "setting": "[9]; 6 h", "result": "no impact"}, {"measurement": "impact on MOLM-13 cell viability", "setting": "[9]; 24 h", "result": "moderate"}, {"measurement": "impact on MOLM-13 cell viability", "setting": "[9]; 48 h", "result": "strong impact"}, {"measurement": "NK cell viability", "setting": "[3]", "result": "did not negatively impact; also recorded: no cytotoxic effect"}, {"measurement": "CD16a expression level on NK cells", "setting": "[4]", "result": "no impact"}, {"measurement": "NKp46 expression level on NK cells", "setting": "[5]", "result": "no impact"}, {"measurement": "impact on NK cell phenotype", "setting": "[6]", "result": "minimal impact"}, {"measurement": "target cell lysis, single agent", "setting": "[7]", "result": "increased target cell lysis; also recorded: some target lysis"}, {"measurement": "MOLM-13 viability", "setting": "[8]; VEN 2, 5 and 10 nM", "result": "impacted MOLM-13 viability mainly after 6 days"}, {"measurement": "plasma concentration", "setting": "[10]", "result": 2000, "unit": "nM"}, {"measurement": "aqueous solubility", "setting": "[11]", "result": "very low"}]}]}
